Source: ChEMBL document CHEMBL1136811, “Design of novel chimeric melanotropin-deltorphin analogues. Discovery of the first potent human melanocortin 1 receptor antagonist” (J Med Chem, 2003)

Experiments:
[1] = system: Melanocortin receptor 1 (Xenopus laevis); assay: Antagonistic activity towards Melanocortin 1 receptor in Xenopus frog skin using competitive binding in the presence of 500 pM of alpha-melanocyte stimulating hormone.
[2] = biological target: Melanocortin receptor 1 (Xenopus laevis); assay: Agonistic activity towards Melanocortin 1 receptor in the Xenopus frog skin assay

IC50 [1]	EC50 [2] [nM]	SMILES
Not Active	313	CC(C)[C@H](NC(=O)[C@@H]1CCC(=O)NCCCC(=O)N[C@@H](Cc2c[nH]cn2)C(=O)N[C@H](Cc2ccccc2)C(=O)N[C@@H](CCCN=C(N)N)C(=O)N[C@@H](Cc2c[nH]c3ccccc23)C(=O)N1)C(=O)N[C@H](C(=O)NCC(N)=O)C(C)C
–	23	CC(C)[C@H](NC(=O)[C@@H]1CCC(=O)NCCCC(=O)N[C@@H](Cc2cnc[nH]2)C(=O)N[C@H](Cc2ccc3ccccc3c2)C(=O)N[C@@H](CCCNC(=N)N)C(=O)N[C@@H](Cc2c[nH]c3ccccc23)C(=O)N1)C(=O)N[C@H](C(=O)NCC(N)=O)C(C)C
–	31	CC(C)[C@H](NC(=O)[C@@H]1CCC(=O)NCCC(=O)N[C@@H](Cc2cnc[nH]2)C(=O)N[C@H](Cc2ccccc2)C(=O)N[C@@H](CCCNC(=N)N)C(=O)N[C@@H](Cc2c[nH]c3ccccc23)C(=O)N1)C(=O)N[C@H](C(=O)NCC(N)=O)C(C)C
–	> 10000	CC(C)[C@H](NC(=O)[C@@H]1CCC(=O)NCC(=O)N[C@@H](Cc2cncn2COCc2ccccc2)C(=O)N[C@H](Cc2ccccc2)C(=O)N[C@@H](CCCN=C(N)N)C(=O)N[C@@H](Cc2c[nH]c3ccccc23)C(=O)N1)C(=O)N[C@H](C(=O)NCC(N)=O)C(C)C
–	> 10000	CC(C)[C@H](NC(=O)[C@@H]1CCC(=O)NCC(=O)N2CCC[C@H]2C(=O)N[C@H](Cc2ccccc2)C(=O)N[C@@H](CCCN=C(N)N)C(=O)N[C@@H](Cc2c[nH]c3ccccc23)C(=O)N1)C(=O)N[C@H](C(=O)NCC(N)=O)C(C)C
Not Active	23	CC(C)[C@H](NC(=O)[C@@H]1CCC(=O)NCCCCCC(=O)N[C@@H](Cc2c[nH]cn2)C(=O)N[C@H](Cc2ccccc2)C(=O)N[C@@H](CCCN=C(N)N)C(=O)N[C@@H](Cc2c[nH]c3ccccc23)C(=O)N1)C(=O)N[C@H](C(=O)NCC(N)=O)C(C)C
Not Active	60	CC(C)[C@H](NC(=O)[C@@H]1CCC(=O)NCC(=O)N[C@@H](Cc2c[nH]cn2)C(=O)N[C@H](Cc2ccc3ccccc3c2)C(=O)N[C@@H](CCCN=C(N)N)C(=O)N[C@@H](Cc2c[nH]c3ccccc23)C(=O)N1)C(=O)N[C@H](C(=O)NCC(N)=O)C(C)C
–	825	CC(C)[C@H](NC(=O)[C@@H]1CCC(=O)N[C@@H](Cc2c[nH]cn2)C(=O)N[C@H](Cc2ccccc2)C(=O)N[C@@H](CCCN=C(N)N)C(=O)N[C@@H](Cc2c[nH]c3ccccc23)C(=O)N1)C(=O)N[C@H](C(=O)NCC(N)=O)C(C)C
Not Active	–	CC(C)[C@H](NC(=O)[C@@H]1CCC(=O)NCCC(=O)N[C@@H](Cc2c[nH]cn2)C(=O)N[C@H](Cc2ccccc2)C(=O)N[C@@H](CCCN=C(N)N)C(=O)N[C@@H](Cc2c[nH]c3ccccc23)C(=O)N1)C(=O)N[C@H](C(=O)NCC(N)=O)C(C)C
–	> 10000	CC(C)[C@H](NC(=O)[C@@H]1CCC(=O)NCC(=O)N2CCC[C@H]2C(=O)N[C@H](Cc2ccc3ccccc3c2)C(=O)N[C@@H](CCCN=C(N)N)C(=O)N[C@@H](Cc2c[nH]c3ccccc23)C(=O)N1)C(=O)N[C@H](C(=O)NCC(N)=O)C(C)C
Not Active	2	CC(C)[C@H](NC(=O)[C@@H]1CCC(=O)NCCC(=O)N[C@@H](Cc2c[nH]cn2)C(=O)N[C@H](Cc2ccc3ccccc3c2)C(=O)N[C@@H](CCCN=C(N)N)C(=O)N[C@@H](Cc2c[nH]c3ccccc23)C(=O)N1)C(=O)N[C@H](C(=O)NCC(N)=O)C(C)C
Not Active	510	CC(C)[C@H](NC(=O)[C@@H]1CCC(=O)NCC(=O)N[C@@H](Cc2c[nH]cn2)C(=O)N[C@H](Cc2ccccc2)C(=O)N[C@@H](CCCN=C(N)N)C(=O)N[C@@H](Cc2c[nH]c3ccccc23)C(=O)N1)C(=O)N[C@H](C(=O)NCC(N)=O)C(C)C
–	> 10000	CC(C)[C@H](NC(=O)[C@@H]1CCC(=O)N[C@@H](Cc2cnc[nH]2)C(=O)N[C@@H](Cc2ccccc2)C(=O)N[C@@H](CCCNC(=N)N)C(=O)N[C@@H](Cc2c[nH]c3ccccc23)C(=O)N1)C(=O)N[C@H](C(=O)NCC(N)=O)C(C)C
Not Active	60	CC(C)[C@H](NC(=O)[C@@H]1CCC(=O)N[C@@H](Cc2c[nH]cn2)C(=O)N[C@H](Cc2ccc3ccccc3c2)C(=O)N[C@@H](CCCN=C(N)N)C(=O)N[C@@H](Cc2c[nH]c3ccccc23)C(=O)N1)C(=O)N[C@H](C(=O)NCC(N)=O)C(C)C
Not Active	> 10000	CC(C)[C@H](NC(=O)[C@@H]1CCC(=O)NCCCCCC(=O)N[C@@H](Cc2c[nH]cn2)C(=O)N[C@@H](Cc2ccccc2)C(=O)N[C@@H](CCCN=C(N)N)C(=O)N[C@@H](Cc2c[nH]c3ccccc23)C(=O)N1)C(=O)N[C@H](C(=O)NCC(N)=O)C(C)C
Not Active	2700	CC(C)[C@H](NC(=O)[C@@H]1CCC(=O)NCCCC(=O)N[C@@H](Cc2c[nH]cn2)C(=O)N[C@@H](Cc2ccccc2)C(=O)N[C@@H](CCCN=C(N)N)C(=O)N[C@@H](Cc2c[nH]c3ccccc23)C(=O)N1)C(=O)N[C@H](C(=O)NCC(N)=O)C(C)C
Not Active	5200	CC(C)[C@H](NC(=O)[C@@H]1CCC(=O)NCC(=O)N[C@@H](Cc2cnc[nH]2)C(=O)N[C@@H](Cc2ccccc2)C(=O)N[C@@H](CCCNC(=N)N)C(=O)N[C@@H](Cc2c[nH]c3ccccc23)C(=O)N1)C(=O)N[C@H](C(=O)NCC(N)=O)C(C)C
–	> 10000	CC(C)[C@H](NC(=O)[C@@H]1CCC(=O)N2CCC[C@H]2C(=O)N[C@H](Cc2ccc3ccccc3c2)C(=O)N[C@@H](CCCN=C(N)N)C(=O)N[C@@H](Cc2c[nH]c3ccccc23)C(=O)N1)C(=O)N[C@H](C(=O)NCC(N)=O)C(C)C
Not Active	–	CC(C)[C@H](NC(=O)[C@@H]1CCC(=O)NCCCC(=O)N[C@@H](Cc2c[nH]cn2)C(=O)N[C@H](Cc2ccc3ccccc3c2)C(=O)N[C@@H](CCCN=C(N)N)C(=O)N[C@@H](Cc2c[nH]c3ccccc23)C(=O)N1)C(=O)N[C@H](C(=O)NCC(N)=O)C(C)C
